What all share (type): toxicity, cell-based
One data set concerns Fibroblast. Briefly: Incucyte cell viability with human fibroblast. The following applies: 10 µM, compound concentration 10 uM.
The subject of a further data set is HEK-293T. Briefly: Incucyte cell viability with HEK293T. The following applies: human, 10 µM, compound concentration 10 uM.
For the next data set, the system named is U2OS. Briefly: Incucyte cell viability with U2OS. The conditions noted are these: human, 10 µM, compound concentration 10 uM.
Setting [1] is: 0 h, replicate number 1, timepoint 0 hours.
Where [2] appears, read: 0 h, replicate number 2, timepoint 0 hours.
Where [3] appears, read: 12 h, replicate number 2, timepoint 12 hours.
Setting [4] is: 24 h, replicate number 1, timepoint 24 hours.
[5] abbreviates: 18 h, replicate number 1, timepoint 18 hours.
[6] abbreviates: 6 h, replicate number 2, timepoint 6 hours.
[7] abbreviates: 18 h, replicate number 2, timepoint 18 hours.
Where [8] appears, read: 24 h, replicate number 2, timepoint 24 hours.
The mark [9] stands for this setting: 6 h, replicate number 1, timepoint 6 hours.
[10] abbreviates: 12 h, replicate number 1, timepoint 12 hours.

The values that follow come from ChEMBL document CHEMBL5058564, “EUbOPEN Chemogenomics Library 2 (Incucyte)” (2022).

Each structure is given as a SMILES string.
Also: unitless GR value; below 1 slowed growth and below 0 cell loss.

As for `CSCC[C@H](NC(=O)[C@@H]1CCCN1C(=O)CNC(=O)[C@H](CCCCN)NC(=O)[C@H](Cc1cnc[nH]1)NC(=O)[C@H](CO)NC(=O)[C@H](CC(C)C)NC(=O)[C@H](CCCNC(=N)N)NC(=O)[C@@H]1CCCN1C(=O)[C@H](CCCNC(=N)N)NC(=O)[C@@H](N)CCC(N)=O)C(=O)N1CCC[C@H]1C(=O)N[C@@H](Cc1ccccc1)C(=O)O`, the “Growth Rate” value was found to be 0.13 in the data set on Fibroblast (setting [1]); 0.64 in the data set on Fibroblast (setting [2]); 0.8 in the data set with Fibroblast (setting [3]); 0.88 in the data set with Fibroblast (setting [4]); 0.46 in the data set with HEK-293T (setting [1]); 0.65 with HEK-293T (setting [2]). The “Growth Rate” value is listed as 0.97 in the data set with HEK-293T (setting [5]); 0.74 in the data set with HEK-293T (setting [4]); -0.88 with U2OS (setting [2]); 0.73 in the data set on U2OS (setting [6]); 0.91 in the data set with U2OS (setting [7]); 0.94 in the data set on U2OS (setting [8]).

For `CN1[C@@H]2CC[C@H]1C[C@@H](OC(=O)C(CO)c1ccccc1)C2` (some centres undefined) [ATROPINE], the “Growth Rate” value was -0.04 in the data set on Fibroblast (setting [1]); -0.32 in the data set with Fibroblast (setting [2]); 0.91 in the data set with Fibroblast (setting [7]); 0.9 in the data set with HEK-293T (setting [9]); 0.19 in the data set on HEK-293T (setting [6]); 0.68 with HEK-293T (setting [10]). For the same molecule, the “Growth Rate” value in the data set on HEK-293T (setting [3]) is listed as 0.53; in the data set on HEK-293T (setting [5]), 0.6; in the data set on HEK-293T (setting [7]), 0.65; in the data set with HEK-293T (setting [4]), 0.44; with HEK-293T (setting [8]), 0.6; with U2OS (setting [9]), 0.86. Also, the “Growth Rate” value in the data set on U2OS (setting [10]) came out at 0.79; in the data set with U2OS (setting [3]), 0.96; with U2OS (setting [7]) it was 0.95.

On to `CCN1/C(=C/C(C)=O)Sc2ccc(OC(C)=O)cc21`, for which the “Growth Rate” value with Fibroblast (setting [9]) is -0.38; in the data set with Fibroblast (setting [6]), -0.29; in the data set with Fibroblast (setting [10]), 0.14; in the data set with Fibroblast (setting [3]) it was 0.41; in the data set on Fibroblast (setting [5]), 0.17; with Fibroblast (setting [4]) it was 0.38. Also, the “Growth Rate” value in the data set on HEK-293T (setting [1]) was 0.98; in the data set with HEK-293T (setting [2]), 0.37; with HEK-293T (setting [9]), 0.5; in the data set with HEK-293T (setting [6]) it was 0.44; with HEK-293T (setting [10]), 0.29; in the data set with HEK-293T (setting [3]) it was 0.41. Moreover, the “Growth Rate” value with HEK-293T (setting [5]) was 0.49; in the data set on HEK-293T (setting [7]) it was 0.37; in the data set with HEK-293T (setting [4]), 0.49; with HEK-293T (setting [8]) it was 0.53; in the data set on U2OS (setting [1]) it was -0.53; in the data set on U2OS (setting [2]), -1. Further, the “Growth Rate” value with U2OS (setting [3]) is on record as 0.89; with U2OS (setting [7]) it was 0.97; in the data set with U2OS (setting [8]), 0.93.

As to `O=C(NC[C@@H]1[C@H]2CN(C(=O)OCc3cc(C(F)(F)F)cc(C(F)(F)F)c3)C[C@@H]12)c1ccc2[nH]nnc2c1` [BI 2545], the “Growth Rate” value in the data set on Fibroblast (setting [9]) is reported as -0.83; in the data set with Fibroblast (setting [6]), -0.59; with Fibroblast (setting [10]) it was -0.64; with Fibroblast (setting [3]), -0.1; in the data set on Fibroblast (setting [5]), -0.55; in the data set on Fibroblast (setting [7]), 0.22. Also, the “Growth Rate” value in the data set with Fibroblast (setting [4]) was -0.35; with Fibroblast (setting [8]), 0.57; with HEK-293T (setting [9]), 0.33; in the data set on HEK-293T (setting [6]), 0.67; in the data set on HEK-293T (setting [10]), 0.61; with HEK-293T (setting [3]), 0.92. Besides, the “Growth Rate” value with HEK-293T (setting [5]) is recorded as 0.65; in the data set with HEK-293T (setting [4]), 0.64; with HEK-293T (setting [8]) it was 0.88; with U2OS (setting [2]) it was 0.37; in the data set with U2OS (setting [10]), 0.93; in the data set on U2OS (setting [5]), 0.99.

For `CS(=O)(=O)N1CCCC(NC(=O)[C@H](CCC2CCCCC2)NC(=O)c2ccc(CNc3ncnc4c3nnn4-c3ccccc3)cc2)C1` (some centres undefined) [SR-301], the “Growth Rate” value in the data set with Fibroblast (setting [2]) is on record as -0.06; in the data set with Fibroblast (setting [9]), -0.33; in the data set with Fibroblast (setting [10]), -0.47; in the data set on Fibroblast (setting [5]) it was -0.48; in the data set on Fibroblast (setting [4]), -0.39; with HEK-293T (setting [2]), 0.12. Also, the “Growth Rate” value in the data set with HEK-293T (setting [9]) is recorded as -0.5; with HEK-293T (setting [10]), -0.33; in the data set with HEK-293T (setting [5]), -0.23; in the data set with HEK-293T (setting [4]), -0.11; with U2OS (setting [1]), 0.63; in the data set with U2OS (setting [9]), 0.78. Also, the “Growth Rate” value in the data set with U2OS (setting [10]) amounted to 0.94; with U2OS (setting [5]) it was 0.6; with U2OS (setting [7]), 0.89; in the data set on U2OS (setting [4]), 0.6.

Consider `Cn1cnc(-c2cc3nccc(Oc4ccc(NC(=S)NC(=O)Cc5ccccc5)cc4F)c3s2)c1`, for which the “Growth Rate” value in the data set with Fibroblast (setting [2]) is listed as 0.94; with Fibroblast (setting [9]) it was 0.43; in the data set with Fibroblast (setting [6]), -0.42; in the data set with Fibroblast (setting [10]) it was -0.11; in the data set with Fibroblast (setting [3]), 0.3; in the data set with Fibroblast (setting [5]) it was 0.43. In addition, the “Growth Rate” value is on record as 0.77 in the data set with Fibroblast (setting [7]); 0.31 in the data set on Fibroblast (setting [4]); -0.37 with HEK-293T (setting [9]); -0.26 in the data set with HEK-293T (setting [6]); -0.02 with HEK-293T (setting [10]); 0.34 in the data set with HEK-293T (setting [3]). Moreover, the “Growth Rate” value in the data set with HEK-293T (setting [5]) is recorded as 0.28; with HEK-293T (setting [7]) it was 0.64; in the data set on HEK-293T (setting [4]) it was 0.6; in the data set with HEK-293T (setting [8]) it was 0.99; in the data set on U2OS (setting [1]), -0.11; in the data set on U2OS (setting [2]) it was -0.99. Also, the results for the “Growth Rate” value in the data set with U2OS (setting [3]), in the data set with U2OS (setting [7]) and in the data set with U2OS (setting [8]) were 0.95, 0.93 and 0.98, respectively.

Regarding `CCCCC1=NC2(CCCC2)C(=O)N1Cc1ccc(-c2ccccc2-c2nnn[nH]2)cc1` [IRBESARTAN], the “Growth Rate” value with Fibroblast (setting [1]) is 0.38; with Fibroblast (setting [2]), 0.58; in the data set on Fibroblast (setting [9]) it was -0.26; in the data set on Fibroblast (setting [6]), 0.66; in the data set on Fibroblast (setting [10]) it was -0.32; with Fibroblast (setting [3]), 0.98. Further, the “Growth Rate” value was 0.01 with Fibroblast (setting [5]); 0.09 with Fibroblast (setting [4]); 0.8 in the data set with HEK-293T (setting [1]); 0.31 in the data set with HEK-293T (setting [2]); 0.86 in the data set with HEK-293T (setting [5]); 0.68 in the data set with HEK-293T (setting [4]). For the same molecule, the “Growth Rate” value in the data set on U2OS (setting [2]) is listed as -1; in the data set with U2OS (setting [9]), 0.3; in the data set on U2OS (setting [6]), 0.94; with U2OS (setting [10]), 0.97; in the data set on U2OS (setting [5]), 0.72; with U2OS (setting [7]), 0.95. Moreover, the “Growth Rate” value with U2OS (setting [4]) is given as 0.87; with U2OS (setting [8]), 0.92.

As to `Nc1ncnc2c1ncn2[C@@H]1O[C@H](CO)[C@@H](O)[C@H]1O` [ADENOSINE], the “Growth Rate” value is 0.25 in the data set with Fibroblast (setting [1]); 0.19 in the data set with Fibroblast (setting [2]); -0.04 in the data set on Fibroblast (setting [9]); 0.59 in the data set with Fibroblast (setting [10]); 0.7 with Fibroblast (setting [5]); 0.58 with Fibroblast (setting [4]). Besides, the “Growth Rate” value is recorded as -0.6 in the data set on HEK-293T (setting [1]); -0.36 in the data set with HEK-293T (setting [2]); 0.98 in the data set with HEK-293T (setting [7]); 0.79 with HEK-293T (setting [4]); 0.54 in the data set with U2OS (setting [1]); 0.47 in the data set with U2OS (setting [9]). Moreover, the “Growth Rate” value in the data set with U2OS (setting [10]) is 0.84; in the data set with U2OS (setting [5]), 0.77.

As for `CO[C@H]1CNC[C@@H](OCC2CCC(F)(F)CC2)[C@@H]1Nc1ncc(-c2cncc(C)c2)c2cc(C)c(=O)[nH]c12`, the “Growth Rate” value in the data set on Fibroblast (setting [1]) turned out to be 0.72; with Fibroblast (setting [2]), 0.95; with Fibroblast (setting [9]), 0.63; with Fibroblast (setting [6]), 0.24; in the data set on Fibroblast (setting [10]) it was 0.16; with Fibroblast (setting [3]), 0.53. For the same molecule, the “Growth Rate” value in the data set on Fibroblast (setting [5]) is recorded as 0.28; in the data set on Fibroblast (setting [7]), 0.64; in the data set with Fibroblast (setting [4]), 0.1; in the data set with Fibroblast (setting [8]), 0.73; in the data set with HEK-293T (setting [2]), 0.51; in the data set with HEK-293T (setting [10]) it was 0.87. Also, the “Growth Rate” value is recorded as 0.84 in the data set on HEK-293T (setting [5]); 0.85 in the data set on HEK-293T (setting [4]); -0.36 in the data set on U2OS (setting [1]); 0.62 with U2OS (setting [9]); 0.39 with U2OS (setting [10]); 0.98 with U2OS (setting [3]). For the same molecule, the “Growth Rate” value in the data set with U2OS (setting [5]) came out at 0.7; in the data set on U2OS (setting [7]), 0.97; in the data set on U2OS (setting [4]), 0.53; with U2OS (setting [8]), 1.
